{"source": "patent US20120046318A1", "about": "“METHODS AND COMPOSITIONS FOR TREATING INTERNAL AND EXTERNAL HEMORRHOIDS” (priority 2010, published 2012)", "key": {"[1]": {"assay": "Crossing of the blood/brain barrier in animal studies", "type": "in vivo", "from_the_text": "Iferanserin is a powerful and selective 5-HT2A receptor antagonist. […] Iferanserin is particularly selective to human colonic venous 5-HT2A receptors, although there is data supporting activity at both 5-HT2B and 5-HT2C. […] Since 5-HT is released by the blood platelets in static and pooled blood, selective peripheral 5-HT2A receptor antagonists would be expected to have built-in tissue selectivity, i.e., will act only where there is vaso-constriction and platelet aggregation mediated by 5-HT. Therefore, the effects of iferanserin should be limited only to those areas where there is stasis and pooled blood caused by serotonin."}, "[2]": {"test_system": "patients with internal hemorrhoids (stages 1-3)", "assay": "Example 6: double-blind placebo-controlled study of 0.5% cream, intra-rectal b.i.d. for two weeks", "type": "in vivo, human", "method": "A double-blind placebo-controlled study was conducted to assess the effects of topical iferanserin (S-MPEC) cream (0.5%), applied intra-rectally twice a day for two weeks, on bleeding and other symptoms of patients with internal hemorrhoids (stages 1-3). The primary endpoint of this trial was the change from pre-treatment in patient assessment of hemorrhoid bleeding (10-point scale where 1=no bleeding, 10=extreme bleeding) at the end of one- and two-weeks of treatment. The 0.5% dose was selected based on previous performance, such as shown in Examples 3, 4 and 5 wherein 0.5% concentration consistently performed better then 0.25% and 1% in both patient reported symptoms and in physician rated symptoms at day 7 in a patient population similar to the planned study population. Further, the 0.5% dose was the only dose to approach statistical significance in the primary endpoint (reduction in hemorrhoid size at week 4; p=0.076) (See FIG. 5) with favorable results in bleeding, itching and pain endpoints.\nSubjects self-administered placebo or 0.5% iferanserin cream twice-a-day for 14 days and completed a diary evaluating their symptoms (bleeding, ease of bowel movement, pain, prolapse, fullness, throbbing, tenderness and itching) every day during the treatment period. Investigator examinations occurred on days 0 and 14 which included evaluation of hemorrhoidal size, bleeding frequency and intensity, soiling, pruritis, pain, prolapse and incontinence to gas.\nOne hundred and twenty-one (121) patients were treated, 61 with iferanserin and 60 with placebo. Inclusion criteria required that the main symptom was bleeding episodes of at least every other day during the last two weeks before enrollment in the study. Daily patient dairies for bleeding, itching and pain/discomfort were recorded for 14 day with assessments taken at day 7 and 14 based on a 10 point scale, wherein 1 was used for less symptoms and 10 was for extreme conditions.\nIn those patients who did have a recurrence of symptoms during this time period there was a significant delay (p<0.05) in the appearance of the symptoms after termination of iferanserin treatment as compared to placebo; iferanserin delayed the reappearance of symptoms by an average of 18 days, compared to 12 days with placebo, a 50% difference, as shown in FIG. 6. Thus, not only did iferanserin decrease the major symptoms of hemorrhoids during treatment but it also delayed the time for these symptoms to reappear after termination of treatment. This prolonged symptom-free period, following treatment with iferanserin, provides for less frequent hemorrhoidal episodes, or at least less frequent episodes of hemorrhoidal symptoms in patients who experience chronic hemorrhoids, thereby translating into less frequent treatment.\nHemorrhoidal symptoms can also recur while treatment is continuing. In this study, bleeding, itching and pain were analyzed for recurrence during the 14-day dosing period. […] […] For iferanserin, 89% of patients reported cessation of bleeding for at least one day, and of these only 32% reported a recurrence of bleeding."}, "[3]": {"assay": "Plasma pharmacokinetics in healthy volunteers after a single intra-rectal dose of iferanserin ointment", "type": "in vivo, human", "settings": "simulation, 10 mg b.i.d. multiple dose regime, subject S-03"}, "[4]": {"settings": "cessation = three consecutive days"}, "[5]": {"settings": "cessation = three consecutive days, 31 patients questioned"}, "[6]": {"settings": "cessation = three consecutive days, 56 patients questioned"}}, "note": "Counter-ions that a name gives are not always drawn.", "data": [{"smiles": "CN1CCCC[C@H]1CCc1ccccc1NC(=O)/C=C/c1ccccc1", "note": "[iferanserin, S-2′-[2-(1-methyl-2-piperidyl)ethyl]cinnamanilide hydrochloride]", "values": [{"measurement": "crossing of the blood/brain barrier", "setting": "[1]", "result": "does not cross the blood/brain barrier (except at extremely high doses in animal studies)"}, {"measurement": "bleeding, patient diary 10-point scale", "setting": "[2]; 0.5% cream b.i.d. 14 days", "result": "reduction in bleeding from Day 1 that continued to the end of treatment"}, {"measurement": "ease of defecation", "setting": "[2]; 0.5% cream b.i.d. 14 days", "result": "statistically significantly better than baseline from day three to the end of the study"}, {"measurement": "itching", "setting": "[2]; 0.5% cream b.i.d. 14 days", "result": "statistically significant improvement versus placebo from the fourth day of treatment"}, {"measurement": "pain", "setting": "[2]; 0.5% cream b.i.d. 14 days", "result": "reduced the level of pain to the almost no symptom level from the third day of treatment"}, {"measurement": "serious adverse events", "setting": "[2]; 0.5% cream b.i.d. 14 days", "result": "no serious adverse events reported"}, {"measurement": "tenderness", "setting": "[2]; 0.5% cream b.i.d. 14 days", "result": "statistically significant from the second day of treatment"}, {"measurement": "difference in delay of reappearance of symptoms compared to placebo", "setting": "[2]; 18 days versus 12 days", "result": 50, "unit": "%"}, {"measurement": "patients who stopped itching", "setting": "[2]; cessation = at least one day", "result": 90, "unit": "%"}, {"measurement": "recurrence of itching among patients with cessation", "setting": "[2]; cessation = at least one day", "result": 25, "unit": "%"}, {"measurement": "recurrence of pain among patients with cessation", "setting": "[2]; cessation = at least one day", "result": 33, "unit": "%"}, {"measurement": "patients reporting cessation of bleeding", "setting": "[2]; cessation = at least one day without the symptom", "result": 89, "unit": "%"}, {"measurement": "recurrence of bleeding among patients with cessation", "setting": "[2]; cessation = at least one day, while on treatment", "result": 32, "unit": "%"}, {"measurement": "recurrence of bleeding among patients with cessation", "setting": "[2]; [4]", "result": 23, "unit": "%"}, {"measurement": "recurrence of itching among patients with cessation", "setting": "[2]; [4]", "result": 16, "unit": "%"}, {"measurement": "number of patients with no itching", "setting": "[2]; [5]", "result": 25, "unit": "patients"}, {"measurement": "patients with no itching", "setting": "[2]; [5]", "result": 80, "unit": "%"}, {"measurement": "number of patients reporting stopping of bleeding", "setting": "[2]; [6]", "result": 46, "unit": "patients"}, {"measurement": "patients reporting stopping of bleeding", "setting": "[2]; [6]", "result": 82, "unit": "%"}, {"measurement": "recurrence of pain among patients with cessation", "setting": "[2]; cessation defined as four consecutive days (sentence says three)", "result": 9, "unit": "%"}, {"measurement": "patients reporting consecutive days of no pain", "setting": "[2]; cessation defined as four consecutive days (sentence says three), 24 patients questioned", "result": 61, "unit": "%"}, {"measurement": "patients with at least one day free of pain", "setting": "[2]; patients reporting with pain", "result": 72, "unit": "%"}, {"measurement": "average delay of reappearance of symptoms after termination of treatment", "setting": "[2]; patients with recurrence within 45 days, p<0.05 versus placebo", "result": 18, "unit": "days"}, {"measurement": "patients without recurrence of any of the symptoms", "setting": "[2]; up to 45 days post-treatment", "result": 61, "unit": "%"}, {"measurement": "projected Cmax,ss", "setting": "[3]", "result": 90, "unit": "ng/m"}, {"measurement": "time to steady state", "setting": "[3]", "result": "4 to 5", "unit": "days"}]}]}
